Values of other authors, collected in patent US20130210767A1, “BIOCIDAL COMPOSITION AND METHOD” (Arcis Biotechnology Limited, priority 2010, published 2013).

For `CCCCCCCCCCCCCCCCCC[N+](C)(C)CCC[Si](OC)(OC)OC` [compound of formula (I)], the “stability in aqueous solution” value (aqueous solution) is given as “limited stability” and the “stability in the presence of methanol” value (in the presence of methanol) is given as “stable”.
